# Patent US10369113B2, “Prostate specific membrane antigen (PSMA) targeted nanoparticles for therapy of prostate cancer” (The Johns Hopkins University, priority 2007, dated 2019)
# System: PSMA-expressing LNCaP human prostate cancer cells
# Assay: In vitro toxicity of nanoparticles (MTT assay after 15 min exposure)
# Format: cell-based
# Conditions: 48 hrs after 15 min exposure, 100 nM docetaxel equivalent, read-out: inhibition of cell growth
# Description: The cytotoxicity of the nontargeted particles in that study was ascribed to a combination of nonspecific uptake and to the expected nonspecific release of docetaxel from the particle into the media over the exposure period. […] Following determination of the amount of docetaxel loading in the particles, PSMA-expressing LNCaP human prostate cancer cells were exposed to equimolar amounts (i.e. 100 nM) of loaded nanoparticles or free docetaxel. To minimize the effects of nonspecific endocytosis, cells were only exposed to test compounds for 15 min at which time cells were washed and then placed in drug free media. Cell counts were determined by converting absorbance from MTT assay to cell number based on a standard curve of absorbance from MTT assay of known amounts of LNCaP cells. In this assay, 48 hrs following exposure, the growth of cells exposed to the nontargeted nanoPEG particles was inhibited by 65% while cell growth was inhibited 89% by docetaxel and 95% by the nanoPSMAi2 particles. […]
# Cytotoxicity assays were performed as described previously (Denmeade, S. R., et al. J Natl Cancer Inst, 95: 990-1000, 2003). […] Cells were then incubated in media at 37° C. and at the end of 48 hours and 96 hours, effects on cell growth were determined using the MTT assay (Promega, WI) according to manufacturer's instructions.
compound,measurement,value
CC(=O)O[C@@]12CO[C@@H]1C[C@H](O)[C@@]1(C)C(=O)[C@H](O)C3=C(C)[C@@H](OC(=O)[C@H](O)[C@@H](NC(=O)OC(C)(C)C)c4ccccc4)C[C@@](O)([C@@H](OC(=O)c4ccccc4)[C@H]21)C3(C)C [docetaxel],inhibition at 0.1 µM,89%
